Experimental data as given in PubChem BioAssay AID1963438 (Molecular Pharmacology Branch, DTP, NCI, 2024).

Test system: NCI-H510 multicellular tumor spheroid growth, % test/control
Assay: Anticancer human tumor NCI-H510 cell line growth inhibition [Asc];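 note: spheroids exposed to agents for 7 days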;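 for viability, T/C: 100% = DMSO vehicle control wells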
Conditions: for viability, T/C: stronger effect = lower value
Procedure: Multicellular complex tumor spheroid response to apoptosis pathway targeting inhibitors Alrizomadlin, Pelcitoclax, and Dasminapant in combination with a variety of drugs and investigational agents in selected tumor cell lines
The MDM2 inhibitor alrizomadlin, the Bcl-2/Bcl-xL inhibitor pelcitoclax, and the IAPs inhibitor dasminapant were evaluated both individually and in combination with standard of care and investigational anticancer small molecules within a complex spheroid model of solid tumors. . Complex spheroids include a stromal component modeled by human endothelial cells (HUVEC) and fibroblasts modeled by human mesenchymal stem cells (MSCs). The concentration ranges selected for each drug and investigational agent were based upon clinically achievable concentrations if the clinical Cmax of the agent was known.
Compounds. The drugs and investigational agents: alrizomadlin (APG-115; NSC831270), pelcitoclax (APG-1252; NSC835773), dasminapant (APG-1387;NSC834197), TAK-243 (NSC785004), copanlisib (NSC809693), olaparib (NSC753686), talazoparib (NSC767125), cobimetinib (NSC 768068), eltanexor (KPT-8602, NSC 794443), abemaciclib (NSC 768073), sotorasib (NSC818433), adagrasib (NSC 831453), MRTX-1133 (NSC 836407), Iadademestat (ORY1001, NSC 806812), and RMC-4630 (NSC839698), were obtained from the NCI Developmental Therapeutics Program Chemical Repository. The FDA-approved anticancer drug set is available from the Developmental Therapeutics Program at https://dtp.cancer.gov/organization/dscb/obtaining/available plates.htm. […] The stock solutions were prepared in dimethyl sulfoxide (DMSO, Sigma-Aldrich, St. Louis, MO, cat. D2650) at 800-fold the tested concentration and stored at -70 degrees C prior to their use. All drugs and investigational agents were tested over a range starting from a high concentration at or near the clinical Cmax and decreasing in half-log increments. If the clinical Cmax for an agent had not been determined, the highest concentration tested was 10 microM.
The patient-derived cancer (PDC) cell lines include five colon adenocarcinomas: 186277-243-T-J2-PDC, 616215-338-R-J1-PDC, 439559-082-T-J2-PDC, 463943-066-T-J2-PDC, and 519858-162-T-J1-PDC; three pancreatic carcinomas: 323965-272-R-J2-PDC, 521955-158-R6-J3-PDC, and 521955-158-R2-J5-PDC; two uterine sarcomas: 327498-152-R-J2-PDC and 993429-296-R-J1-PDC; two rhabdomyosarcomas: 755483-174-R-J1-PDC and 772245-204-R-J1-PDC; two soft tissue sarcomas: 126254-015-R-J1-PDC and 494315-158-R-J1-PDC; two malignant fibrous histiocytomas: 317291-083-R-J1-PDC and 596521-263-R-J1-PDC; two breast carcinomas: 171881-019-R-J1-PDC and 885512-296-R-J2-PDC; and one ovarian carcinoma: 6556581-035-R-J-PDC were obtained from the NCI PDMR, (https://pdmr.cancer.gov). The established cell lines HSSY-2 synovial sarcoma (RRID:CVCL 8719), SYO-1 synovial sarcoma (RRID:CVCL_7146), MPNST malignant peripheral neural sheath tumor were obtained from the Sloan Kettering Institute. The following established cell lines were purchased from the American Type Culture Collection (ATCC, Manassas, VA), Sor the received from the NCI repository:, PANC-1 pancreatic carcinoma (CRL-1469, RRID:CVCL_0480), OVCAR-5 ovarian carcinoma (RRID:CVCL_1628), OVCAR-8 ovarian carcinoma (RRID:CVCL_1629), , MCF-7 breast carcinoma (CRL-12584, RRID:CVCL_0031), MDA-MB-231 breast carcinoma (CRL-12532, RRID:CVCL_0062), NCI-H1876 small cell lung carcinoma (CRL-5902, RRID:CVCL_1503), NCI-H510A small cell lung carcinoma (HTB-184, RRID:CVCL_1565), NCI-H1417 (CRL-5869, RRID:CVCL_1469), and NCI-H196 small cell lung carcinoma (CRL-5823, RRID:CVCL_1509). Dr. Peter Houghton (Greehey Children's Cancer Research Institute, University of Texas Health Science Center, San Antonio, TX) provided Rh-18 rhabdomyosarcoma (RRID:CVCL_1659). Pooled donor human umbilical vein endothelial cells (HUVEC, Lonza, cat. CC-2519) and human mesenchymal stem cells (hMSC, Lonza, cat. PT-2501) were purchased from Lonza (Walkersville, MD).
Cell Culture. […]

[1] = curve of first compound, second compound 0.1 µM
[2] = curve of first compound, second compound 0.316 µM
[3] = curve of first compound, second compound 1 µM
[4] = curve of first compound, second compound 3.16 µM
[5] = curve of first compound, second compound 10 µM
[6] = second compound 0.1 µM, first compound 0.00316 µM
[7] = second compound 0.1 µM, first compound 0.01 µM
[8] = second compound 0.1 µM, first compound 0.0316 µM
[9] = second compound 0.1 µM, first compound 0.1 µM
[10] = second compound 0.316 µM, first compound 0.00316 µM
[11] = second compound 0.316 µM, first compound 0.01 µM
[12] = second compound 0.316 µM, first compound 0.0316 µM
[13] = second compound 0.316 µM, first compound 0.1 µM
[14] = second compound 1 µM, first compound 0.00316 µM
[15] = second compound 1 µM, first compound 0.01 µM
[16] = second compound 1 µM, first compound 0.0316 µM
[17] = second compound 1 µM, first compound 0.1 µM
[18] = second compound 3.16 µM, first compound 0.00316 µM
[19] = second compound 3.16 µM, first compound 0.01 µM
[20] = second compound 3.16 µM, first compound 0.0316 µM
[21] = second compound 3.16 µM, first compound 0.1 µM
[22] = second compound 10 µM, first compound 0.00316 µM
[23] = second compound 10 µM, first compound 0.01 µM
[24] = second compound 10 µM, first compound 0.0316 µM
[25] = second compound 10 µM, first compound 0.1 µM

SMILES | IC50 [1] | IC50 [2] | IC50 [3] | IC50 [4] | IC50 [5] | viability, T/C [6] | viability, T/C [7] | viability, T/C [8] | viability, T/C [9] | viability, T/C [10] | viability, T/C [11] | viability, T/C [12] | viability, T/C [13] | viability, T/C [14] | viability, T/C [15] | viability, T/C [16] | viability, T/C [17] | viability, T/C [18] | viability, T/C [19] | viability, T/C [20] | other results
Cn1ncnc1[C@H]1c2n[nH]c(=O)c3cc(F)cc(c23)N[C@@H]1c1ccc(F)cc1 + Cc1c(S(C)(=O)=O)c(-c2cc(F)cc(N3CCN(c4ccc(NS(=O)(=O)c5ccc(NC(CCN6CCC(C(=O)OCCCP(=O)(O)O)CC6)CSc6ccccc6)c(S(=O)(=O)C(F)(F)F)c5)cc4)CC3)c2)c(-c2ccc(Cl)cc2)n1C(C)C | 8.46 nM | 9.32 nM | 4.76 nM | 6.9 nM | 5 nM | 58.5% | 58.2% | 9.67% | 7.11% | 101% | 47.3% | 5.08% | 5.01% | 68.7% | 16.2% | 2.54% | 2.95% | 92.3% | 31.1% | 12.2% | viability, T/C (second compound 0.1 µM, first compound 0.000316 µM): 88%; viability, T/C (second compound 0.1 µM, first compound 0.001 µM): 101%; viability, T/C (second compound 0.316 µM, first compound 0.000316 µM): 106%; viability, T/C (second compound 0.316 µM, first compound 0.001 µM): 70.3%; viability, T/C (second compound 1 µM, first compound 0.000316 µM): 96.2%; viability, T/C (second compound 1 µM, first compound 0.001 µM): 91.8%; viability, T/C (second compound 3.16 µM, first compound 0.000316 µM): 96.9%; viability, T/C (second compound 3.16 µM, first compound 0.001 µM): 79.8%; viability, T/C [21]: 2.55%; viability, T/C (second compound 10 µM, first compound 0.000316 µM): 92.6%; viability, T/C (second compound 10 µM, first compound 0.001 µM): 88.9%; viability, T/C [22]: 81.9%; viability, T/C [23]: 1.81%; viability, T/C [24]: 1.16%; viability, T/C [25]: 1.64%
Cc1c(S(C)(=O)=O)c(-c2cc(F)cc(N3CCN(c4ccc(NS(=O)(=O)c5ccc(NC(CCN6CCC(C(=O)OCCCP(=O)(O)O)CC6)CSc6ccccc6)c(S(=O)(=O)C(F)(F)F)c5)cc4)CC3)c2)c(-c2ccc(Cl)cc2)n1C(C)C (configuration not stated) |  |  |  |  |  |  |  |  |  |  |  |  |  |  |  |  |  |  |  |  | viability, T/C (compound 1 µM): 95.2% [middle of 14 runs]; IC50 (compound alone, run of 10/11/2022): > 10000 nM
CCN1CCN(Cc2ccc(Nc3ncc(F)c(-c4cc(F)c5nc(C)n(C(C)C)c5c4)n3)nc2)CC1 + Cc1c(S(C)(=O)=O)c(-c2cc(F)cc(N3CCN(c4ccc(NS(=O)(=O)c5ccc(NC(CCN6CCC(C(=O)OCCCP(=O)(O)O)CC6)CSc6ccccc6)c(S(=O)(=O)C(F)(F)F)c5)cc4)CC3)c2)c(-c2ccc(Cl)cc2)n1C(C)C | > 1000 nM | > 1000 nM | 651 nM | 640 nM | 408 nM | 112% | 91.2% | 98% | 75.1% | 104% | 94.8% | 102% | 108% | 98.4% | 90.7% | 76.2% | 74.3% | 69.6% | 93% | 107% | viability, T/C (second compound 0.1 µM, first compound 0.316 µM): 86.1%; viability, T/C (second compound 0.1 µM, first compound 1 µM): 103%; viability, T/C (second compound 0.316 µM, first compound 0.316 µM): 88.3%; viability, T/C (second compound 0.316 µM, first compound 1 µM): 87.8%; viability, T/C (second compound 1 µM, first compound 0.316 µM): 74.9%; viability, T/C (second compound 1 µM, first compound 1 µM): 38.2%; viability, T/C [21]: 112%; viability, T/C (second compound 3.16 µM, first compound 0.316 µM): 61.2%; viability, T/C (second compound 3.16 µM, first compound 1 µM): 42.9%; viability, T/C [22]: 104%; viability, T/C [23]: 102%; viability, T/C [24]: 78.2%; viability, T/C [25]: 90.4%; viability, T/C (second compound 10 µM, first compound 0.316 µM): 56.9%; viability, T/C (second compound 10 µM, first compound 1 µM): 18.8%
